Key:
[1] = system: Unkräuter, wie z. B. Datura, Galium, Polygonum, Portulak, Sinapis und Solanum; assay: Post-emergence test (herbicidal action on weeds); type: in vivo; details: post-emergence spray on test plants 5 - 15 cm high, 2000 l Wasser/ha, rated after three weeks as % Schädigung vs untreated control; result stated in comparison with Vergleichssubstanz (A)
Text: (§1) Lösungsmittel: 5 Gewichtsteile Aceton Emulgator: 1 Gewichtsteil Alkylarylpolyglykolether
(§2) Zur Herstellung einer zweckmäßigen Wirkstoffzubereitung vermischt man 1 Gewichtsteil Wirkstoff mit der angegebenen Menge Lösungsmittel, gibt die angegebene Menge Emulgator zu und verdünnt das Konzentrat mit Wasser auf die gewünschte Konzentration. Mit der Wirkstoffzubereitung spritzt man Testpflanzen, welche eine Höhe von 5 - 15 cm haben so, daß die jeweils gewünschten Wirkstoffmengen pro Flächeneinheit ausgebracht werden. Die Konzentration der Spritzbrühe wird so gewählt, daß in 2000 l Wasser/ha die jeweils gewünschten Wirkstoffmengen ausgebracht werden. Nach drei Wochen wird der Schädigungsgrad der Pflanzen bonitiert in % Schädigung im Vergleich zur Entwicklung der unbehandelten Kontrolle.

Weizen = assay: Post-emergence test (crop selectivity); type: in vivo; details: post-emergence spray, 2000 l Wasser/ha, rated after three weeks
Text: as §1, §2

| SMILES | Wirkung gegen Unkräuter [1] | Selektivität in Weizen (Weizen) |
| --- | --- | --- |
| CCOC(=O)C(C)(O)Cc1cc(Oc2c(Cl)cc(C(F)(F)F)cc2Cl)ccc1Cl (stereo not shown) [Beispiel 6, 1-Hydroxy-1-methyl-2-(2-chlor-5-(2,6-dichlor-4-trifluormethyl-phenoxy)-phenyl)-propionsäure-ethylester] | erheblich stärkere Wirkung | guter Selektivität |
| FC(F)(F)c1ccc(Oc2ccc(Cl)c(CBr)c2)c(Cl)c1 [Beispiel 1, 2-Chlor-5-(2-Chlor-4-trifluormethyl-phenoxy)-benzylbromid] | erheblich stärkere Wirkung | guter Selektivität |
